Measurements: patent US20090061022A1, “Pharmaceutical composition comprising arsenite for the treatment of malignancy” (priority 2004, published 2009)

Columns and labels:
RXF 944LX = experiment: Anticancer activity in RXF 944LX cancer bearing nude mice, intermittent and daily schedules; conditions: for MTD: i.p., RXF 944LX
Method: Cancer fragments (1-2 mm in diameter), obtained from xenografts in serial passage in nude mice, were implanted subcutaneously (S.C.) in a flank of male NRMI nude mice (one fragment per mouse). Mice with appropriate cancer volumes (5-7 mm in diameter) were randomly distributed to treatment and control groups (4 mice/group). The start of treatment was day 0. Cancer volume and body weights were measured at least twice per week.
The cancer volume of each animal was determined by two-dimensional measurement using calipers. The volume was calculated according to the formula: (a×b^2)×0.5; wherein a and b represent two perpendicular diameters in which a (length) is the larger diameter and b (width) the smaller diameter.
Relative cancer volumes (RCV) were calculated for each individual cancer by dividing the cancer volume on day X by the cancer volume on day 0 multiplied by 100%. The cancer volume of a treatment group was expressed as the median RCV of all mice of the group. Median RCV values were used for drawing growth curves and treatment evaluation. Optimal cancer growth inhibition at a particular day within the treatment period was calculated from the median RCV values of the treated (T) versus the controlled (C) group multiplied by 100%. A T/C value<50% was considered as anti-cancer activity.
In the experiment with renal cancer RXF 944LX, the anticancer activity of the compounds was explored using two administration schedules; 1) intermittent schedule of 4 days×3, and 2) a daily schedule for 2 weeks (days 0-4, 7-11).
The dose levels chosen for sodium meta-arsenite and arsenic acid sodium salt in these schedules were based on the experience in the 1st experiment. Additional small dose finding studies were executed.

[1] = Maximum tolerated dose assessment after daily oral administration for 14 days in the pig; format: in vivo, pigs (large white×landrace×pietrain)
Source text: The aims of this study were to establish a MTD and the kinetics of sodium meta-arsenite after repeated administration to pigs.
Sodium meta-arsenite was formulated using enteric-coated capsules (size no. 2) for a toxicology study in pigs. Cellulose-based clear capsules contained 1) sodium meta-arsenite as an active ingredient, 2) microcrystalline cellulose and colloidal silicon dioxide as excipients. The coating material of the capsules comprised of Eudragit L 12.5 (acrylic polymer) and Macrogol 6000 (polyethylene glycol as softener). It is resistant to gastric fluid at least for 1 hour.
The oral route was selected, as it is the intended route of administration in human. Based on previous studies, the following doses were selected: 7.5 and 10 mg/pig (equivalent to 24.5 and 32.5 mg/man). Capsules (enteric coated, size no. 2) of sodium meta-arsenite in concentrations of 7.5 and 10 mg/capsule, formulations, were stored in a refrigerator in the dark. Each dose was administered orally by gavages to groups of 12 male growing pigs (large white×landrace×pietrain) for 14 days, followed by a 14-day recovery period. The mean weight of the pigs was 16.8±2.3 kg at the beginning of the study.
Mortality and viability were checked twice daily, clinical examinations were performed daily and body weight was recorded twice a week. Scheduled termination was performed on day 29 (after 14 days of recovery). Macroscopic examination was performed on all animals and samples from brain (cerebellum, mid brain, cortex), heart, kidney, liver, lung, spleen, stomach wall, small intestine and large intestine taken for histopathology.
Blood samples (10 ml) of both dose groups were collected for hematology and biochemistry analysis on days −2, −1, 0, 7, 14, 21, 28. The samples collected during the treatment period were taken prior to the administration of the next drug. […]

[2] = Maximum tolerated dose assessment after daily oral gavages for 14 days in the mouse; format: in vivo, CD-1 mice
Method: The objective of this oral toxicity study was to establish a MTD after repeated administration of sodium meta-arsenite to mice.
Ampoules of sodium meta-arsenite (dissolved in 10% (w/v) glucose in water) in concentrations of 1, 1.6, 2.6, 4.1 and 6.5 mg/ml were stored in a refrigerator in the dark. Based on the previous study, the following doses were selected: 10, 16, 26, and 41 and 65 mg/kg/day. Each dose was administered daily by oral gavages to groups of 4 male and 4 CD-1 mice for 14 days, followed by a 14-day recovery period.
Clinical signs were evaluated daily and body weights were recorded twice weekly. Scheduled termination was performed on day 29 (after 14 days of recovery). Macroscopic examination was performed on all animals.

[3] = 8 mg/kg i.p., days 0-4, 7, 14-18

O=[As][O-].[Na+] [Sodium meta-arsenite, sodium meta-arsenite]
BW loss % (day) (RXF 944LX; 4 mg/kg i.p., days 0-4, 7-11): −3 (7) % | Drug-related deaths (RXF 944LX; 4 mg/kg i.p., days 0-4, 7-11): 2/6 | SGD (specific growth delay) (RXF 944LX; 4 mg/kg i.p., days 0-4, 7-11): 0.1 | T/C % (RXF 944LX; 4 mg/kg i.p., days 0-4, 7-11): 55% | BW loss % (day) (RXF 944LX; 5 mg/kg i.p., days 0, 4, 8): −2 (3) % | Drug-related deaths (RXF 944LX; 5 mg/kg i.p., days 0, 4, 8): 0/6 | SGD (specific growth delay) (RXF 944LX; 5 mg/kg i.p., days 0, 4, 8): −0.5 | T/C % (RXF 944LX; 5 mg/kg i.p., days 0, 4, 8): 84% | BW loss % (day) (RXF 944LX; [3]): −14 (10) % | Drug-related deaths (RXF 944LX; [3]): 3/6 | Drug-related deaths (RXF 944LX; 10 mg/kg i.p., days 0, 4, 8): 5/6 | MTD (RXF 944LX; daily schedule (days 0-4, 7-11)): 4 mg/kg/day | MTD (RXF 944LX; intermittent schedule (4 days×3)): 5 mg/kg/day | Hematological and biochemical parameters ([1]; 7.5 and 10 mg/pig, 14 days): No (statistical) significant differences | Mortality ([1]; 7.5 and 10 mg/pig, enteric-coated capsules, 14 days + 14-day recovery): No pigs died or were killed in extremis | Drug related side effects ([1]; pigs at the doses of 7.5 and 10 mg/day): did not induce any drug related side effects | Findings ([2]; 10 mg/kg/day oral gavage 14 days, mouse): No findings were noted | Findings ([2]; 16 mg/kg/day oral gavage 14 days, mouse): Piloerection on the head was noted for one male on days 4 and 5 | Findings (mortality) ([2]; 26 mg/kg/day oral gavage 14 days, mouse): No unscheduled mortality occurred | Findings (mortality) ([2]; 41 mg/kg/day oral gavage 14 days, mouse): All males died on days 2-4 and all females on days 2-7 | Findings (mortality) ([2]; 65 mg/kg/day oral gavage 14 days, mouse): All animals died on days 2 or 3, all females died on day 1 or 2 | MTD (or LD10 value) ([2]; mice, males and females, oral once daily 14 days, calculated): 32 mg/kg/day | MTD ([2]; mouse, oral once daily 14 days): 96 mg/m^2/day
